The values that follow are results of earlier work, collected in patent US20250195455A1, “COMBINATION NASAL AND ORAL THERAPY FOR WEIGHT LOSS” (priority 2022, published 2025).

For the series the following is noted: for Average weight loss/one year: vs. 3% placebo; for evidence of weight loss: no drug trials for weight loss.

Like-named read-outs stand apart in the source and are kept apart here.

In the case of `CCN(CC)C(C)C(=O)c1ccccc1` (centres unmarked) [Diethylpropion], the “patients that have 5% weight loss/12 weeks” value is 80%, the “patients that have 10% weight loss/12 weeks” value was 50% and the “Average weight loss/one year” value is on record as 10%.
For `C[C@H]1CNCCc2ccc(Cl)cc21` [Lorcaserin], the “weight loss/year vs. placebo” value (per year, vs. placebo) is recorded as 3-5%.
As for `CC1(C)O[C@@H]2[C@@H](CO[C@@]3(COS(N)(=O)=O)OC(C)(C)O[C@@H]23)O1` [Topiramate], the “efficacy (vs. placebo)” value (vs. placebo) is on record as “Minimal, if any efficacy”.
For the compound `CNCCC(Oc1ccc(C(F)(F)F)cc1)c1ccccc1` (centres unmarked) [Fluoxetine], the “evidence of weight loss” value is “No evidence of weight loss”.
As to Albeglutide, the “Average weight loss vs. placebo” value (vs. placebo) is on record as 2.9 kg./year.
On to `CCCCCCCCCCC[C@@H](C[C@@H]1OC(=O)[C@H]1CCCCCC)OC(=O)[C@H](CC(C)C)NC=O` [Orlistat], for which the “weight loss (vs. placebo)/6 months” value (6 months, vs. placebo) is listed as 5%. For the same compound, the net loss result is, setting by setting: (decreased fat absorption) “approximately 500 kcal/day”; (equivalent of the kcal/day net loss) 1 lb./week.
Take `C[C@H]1[C@H](c2ccccc2)OCCN1C` [Phendimetrazine]: the “patients that have 5% weight loss/12 weeks” value is given as 80%, the “patients that have 10% weight loss/12 weeks” value is given as 50% and the “Average weight loss/one year” value is 10%.
Turning to Lixisenatide, the “Average weight loss vs. placebo” value (vs. placebo) is 2.9 kg./year.
In the case of Dulaglutide, the “Average weight loss vs. placebo” value (vs. placebo) is recorded as 2.9 kg./year.
“Semaglutide (HAEGTFTSDVSSYLEGQAAKEFIAWLVKGRG; Glucagon-like peptide 1(7-37) semaglutide; Aib8, R34K, C18 diacid side chain; UniProt P01275 98-128, looked up) [GLP-1 agonist]”: for the setting “vs. placebo”, the “Average weight loss vs. placebo” value is on record as 2.9 kg./year.
`CC(C)(N)Cc1ccccc1` [Phentermine]: the “patients that have 5% weight loss/12 weeks” value was 80%, the “patients that have 10% weight loss/12 weeks” value is 50% and the “Average weight loss/one year” value is on record as 10%.
With `C[C@@H](Cc1ccccc1)N(C)Cc1ccccc1` [Benzphetamine], the “patients that have 5% weight loss/12 weeks” value was 80%, the “patients that have 10% weight loss/12 weeks” value is on record as 50% and the “Average weight loss/one year” value is recorded as 10%.
`CN[C@H]1CC[C@@H](c2ccc(Cl)c(Cl)c2)c2ccccc21` [Sertraline]: the “evidence of weight loss” value is “No evidence of weight loss”.
